The record followed here is US20230193262A1, “Nucleic acid molecules capable of modulating target gene expression and uses thereof” (KOREA ADVANCED INSTITUTE OF SCIENCE AND TECHNOLOGY, priority 2021, published 2023).

The subject of data set [1] is MCF-7 breast cancer cells. The data set can be described thus: Cell viability / apoptosis in MCF-7. In kind it is cell-based. The conditions noted are these: single siRNA, final concentration 60 nM. The protocol:
The miRNA triggers were assayed for cytotoxicity and apoptosis induction, using the CCK-8 (Cell Counting Kit-8) (Dojindo, Kumamoto, Japan) according to the manufacturer's instruction. Cells were incubated in 96-well plates (5×10^3 cells/well) at 37° C. for 24 hours under a 5% CO2 atmosphere, followed by transfection. Three days after transfection, the medium was removed. A 10-fold dilution of CCK-8 solution in DMEM was added to the cells which were then incubated at 37° C. for 2 hours. After incubation, absorbance was read at 450 nm on Tecan Infinite M200 pro microplate reader (Mnnedorf, Switzerland).
An siRNA targeting bcl-2, bcl-xL, or mcl-1 was transfected into MCF-7 breast cancer cells and PANC-1 pancreatic cancer cells. By using qRT-PCR, establishment was made of a condition under which the expression of each target gene is decreased by 80% or more (transfection was performed at a concentration of 60 nM with the aid of Lipofectamine). As a negative control, a Luc (Luciferase)-targeting siRNA (siLuc) was used. Under the same condition of decreasing the expression of each target gene by 80% or more, the cells transfected with the siRNAs were measured for apoptosis, and the results are depicted in FIGS. 14a and 14b.
Linear miRNA triggers that could bind to miR-141 or let7f and target bcl-xL or mcl-1 were prepared and transfected alone or in combination into the breast cancer cell line MCF-7 which was then measured for cell viability. Every nucleotide of the triggers and controls was chemically modified with 2′-OMe.
First, MCF-7 was measured for cell viability after treatment with siMCL-1, siBCL-xL, and siBCL-2 (FIG. 48). […] The final concentration of the siRNAs was 60 nM.
Next, examination was made of the apoptosis when two or more genes were regulated together. MCF-7 was measured for cell viability after treatment with siMCL-1+siBCL-xL, siMCL-1+siBCL-2, siBCL-xL+siBCL-2, and siMCL-1+siBCL-xL+siBCL-2 (FIG. 49).
Finally, experiments under all the conditions (individual and simultaneous regulation) were conducted simultaneously so as to compare effects thereof. […]

A further data set concerns cleaved PARP. The data set can be described thus: Western blot of apoptotic marker cleaved PARP. It is filed as cell-based. The conditions noted are these: blood cancer cell line HL-60. The procedure: miRNA triggers were transfected into cells in the same manner as in Reference Example 4. After 72 hours, the cells were collected using a cell scraper and lysed with a RIPA buffer (NaCl 150 mM, EDTA 5 mM, Tris 50 mM, NP-40 1.0%, sodium deoxycholate 0.5%, SDS 0.1%). The cell lysate was sonicated 15 times, each for 20 sec, with a halt for 30 sec every sonication. Following centrifugation at 5,000 g for 5 min, the supernatant was taken and used to extract proteins therefrom. A total of 30-40 μg of protein sample was separated in 10-15% SDS-PAGE gel and transferred onto a PVDF membrane through a semi-dry blotting system. The membrane was blocked for 1 hour in 5% skimmed milk and incubated for 2 hours with a 1,000-fold dilution of a primary antibody in, 1% skimmed milk. […] The membrane incubated with the secondary antibody was washed three times with 1×PBST for 10 min each wash, and then reacted with Clarity Western ECL Substrate (#1705061, Bio-Rad), after which images were obtained and analyzed using ChemiDoc (Bio-rad, Hercules, USA). […]
The cells transfected with the selected miRNA triggers were measured for protein expression levels of the target Bcl-xL and the apoptotic marker cleaved PARP through western blotting, and the results are depicted in FIG. 32b.

For the substance “siBcl-2: siRNA targeting bcl-2; SEQ ID NO 62 (AUCAAUCUUCAGCACUCUC; listed as RNA, chemistry not given here)”, the “apoptosis (cell viability)” value in data set [1] is recorded as “apoptosis was detected”. The “expression of the apoptotic marker cleaved PARP” value in the data set on cleaved PARP is listed as “upregulated”.
